Source: ChEMBL document CHEMBL1153270, “Fluoroalkyl alpha side chain containing 3,4-diamino-cyclobutenediones as potent and orally bioavailable CXCR2-CXCR1 dual antagonists” (Bioorg Med Chem Lett, 2009)

Legend:
[1] = molecular target: T1, C-X-C chemokine receptor type 1 (Homo sapiens, UniProt P25024); test: Binding affinity to CXCR1
T1 sequence (P25024 whole entry): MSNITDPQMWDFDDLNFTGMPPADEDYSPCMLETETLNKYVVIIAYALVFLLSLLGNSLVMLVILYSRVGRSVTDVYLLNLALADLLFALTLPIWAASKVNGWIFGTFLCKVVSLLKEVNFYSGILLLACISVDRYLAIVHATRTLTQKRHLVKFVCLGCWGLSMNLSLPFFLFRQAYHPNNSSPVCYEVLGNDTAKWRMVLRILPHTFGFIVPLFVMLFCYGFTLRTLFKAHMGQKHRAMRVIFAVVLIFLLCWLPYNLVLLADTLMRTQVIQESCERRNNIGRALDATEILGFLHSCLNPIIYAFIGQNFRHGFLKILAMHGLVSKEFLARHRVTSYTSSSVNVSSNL

[2] = molecular target: T2, C-X-C chemokine receptor type 2 (Homo sapiens, UniProt P25025); test: Binding affinity to CXCR2
T2 sequence (P25025 whole entry): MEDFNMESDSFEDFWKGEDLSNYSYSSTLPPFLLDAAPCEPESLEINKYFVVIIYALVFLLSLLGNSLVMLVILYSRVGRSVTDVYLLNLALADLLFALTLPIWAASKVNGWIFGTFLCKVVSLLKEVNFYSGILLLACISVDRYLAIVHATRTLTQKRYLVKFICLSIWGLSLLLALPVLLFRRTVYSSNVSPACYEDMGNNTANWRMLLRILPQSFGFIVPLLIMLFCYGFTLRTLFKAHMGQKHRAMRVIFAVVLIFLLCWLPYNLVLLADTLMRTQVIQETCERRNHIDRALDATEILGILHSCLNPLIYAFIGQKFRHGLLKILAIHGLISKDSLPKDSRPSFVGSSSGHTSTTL

[3] = AUC in po dosed rat; format: ADME, organism-based; details: plasma

| SMILES | Ki [1] [nM] | Ki [2] [nM] | AUC [3] [µM·h] |
| --- | --- | --- | --- |
| Cc1ccc([C@H](Nc2c(Nc3cccc(C(=O)N(C)C)c3O)c(=O)c2=O)C(C)(C)F)o1 | 24 | 8 | – |
| Cc1ccc([C@H](Nc2c(Nc3cccc(C(=O)N(C)C)c3O)c(=O)c2=O)C(C)(F)F)o1 | 6 | 10 | 3 |
| CN(C)C(=O)c1cccc(Nc2c(N[C@@H](c3ccc(Cl)o3)C(F)(F)F)c(=O)c2=O)c1O | 34 | 7 | – |
| CN(C)C(=O)c1cccc(Nc2c(N[C@H](CC(F)(F)F)c3ccco3)c(=O)c2=O)c1O | 100 | 5 | – |
| CCC(F)(F)[C@@H](Nc1c(Nc2cccc(C(=O)N(C)C)c2O)c(=O)c1=O)c1ccc(C)o1 | 22 | 5 | – |
| Cc1ccc([C@H](Nc2c(Nc3cccc(C(=O)N(C)C)c3O)c(=O)c2=O)C(F)(F)F)o1 | 9 | 5 | 19.8 |
| CC(C)c1coc([C@H](Nc2c(Nc3cccc(C(=O)N(C)C)c3O)c(=O)c2=O)C(C)(F)F)c1 | 25 | 2 | – |
| CN(C)C(=O)c1cccc(Nc2c(N[C@@H](c3ccccc3)C(F)(F)F)c(=O)c2=O)c1O | 40 | 14 | – |
| CN(C)C(=O)c1cccc(Nc2c(N[C@@H](c3ccc4c(c3)OCO4)C(F)(F)F)c(=O)c2=O)c1O | 8 | 5 | 9.17 |
| CC[C@@H](Nc1c(Nc2cccc(C(=O)N(C)C)c2O)c(=O)c1=O)c1ccc(C)o1 [NAVARIXIN ANHYDROUS] | – | – | 49 |
| CN(C)C(=O)c1cccc(Nc2c(N[C@@H](c3cc(Cl)c(Cl)o3)C(F)(F)F)c(=O)c2=O)c1O | 103 | 5 | – |
| Cc1ccc([C@H](Nc2c(Nc3cccc(C(=O)N(C)C)c3O)c(=O)c2=O)[C@H](C)F)o1 | 16 | 13 | 3.6 |
| C=CC(F)(F)[C@@H](Nc1c(Nc2cccc(C(=O)N(C)C)c2O)c(=O)c1=O)c1ccc(C)o1 | – | 9 | – |
| CN(C)C(=O)c1cccc(Nc2c(N[C@@H](c3cc(Cl)co3)C(F)(F)F)c(=O)c2=O)c1O | 20 | 5 | – |
| CC[C@@H](Nc1c(Nc2cccc(C(=O)N(C)C)c2O)c(=O)c1=O)c1ccccc1 | 40 | 4 | 17.4 |
| Cc1ccc([C@H](Nc2c(Nc3cccc(C(=O)N(C)C)c3O)c(=O)c2=O)C(F)(F)C(F)(F)F)o1 | 10 | 4 | – |
| Cc1coc([C@H](Nc2c(Nc3cccc(C(=O)N(C)C)c3O)c(=O)c2=O)C(C)(F)F)c1 | 6 | 14 | – |
| C[C@H](F)[C@@H](Nc1c(Nc2cccc(C(=O)N(C)C)c2O)c(=O)c1=O)c1ccco1 | 43 | 7 | – |
| CN(C)C(=O)c1cccc(Nc2c(N[C@H](CCC(F)(F)F)c3ccco3)c(=O)c2=O)c1O | – | 400 | – |
| Cc1coc([C@H](Nc2c(Nc3cccc(C(=O)N(C)C)c3O)c(=O)c2=O)[C@H](C)F)c1 | 5 | 4 | 3.6 |
| Cc1ccoc1[C@H](Nc1c(Nc2cccc(C(=O)N(C)C)c2O)c(=O)c1=O)C(C)(F)F | 30 | 12 | – |
| CN(C)C(=O)c1cccc(Nc2c(N[C@@H](c3ccco3)C(F)(F)F)c(=O)c2=O)c1O | 6 | 2 | – |
